In patent US9617256B2 (priority 2007, dated 2017):
Values after ≈ are worked out from the molar mass of the structure shown.

How the values were obtained:
AECO001 (ATCC25922) = assay: MIC broth microdilution, AECO001; type: cell-based, E. coli; conditions: Escherichia coli, ATCC25922, read-out: MIC AECO001
Summary of the method: (§1)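 Minimum inhibitory concentrations followed CLSI broth microdilution guidelines: cation-adjusted Mueller-Hinton broth, 2-fold serial drug dilutions, final inoculum 3×10^5–7×10^5 CFU/mL, ambient air at 35° C. for 18-24 hours. Quality-control strains and levofloxacin monitored performance.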

[1] = tested on: AECO063 (ATCC25922 bearing an acrAB mutation); assay: microbe, parasite or virus in culture; type: cell-based, E. coli; conditions: Escherichia coli, ATCC25922, read-out: MIC AECO063
Summary of the method: as §1

APAE001 (ATCC27853) = assay: MIC broth microdilution, APAE001; type: cell-based, P. aeruginosa; conditions: Pseudomonas aeruginosa, ATCC27853, read-out: MIC APAE001, APAE001 is ATCC27853
Summary of the method: as §1

[2] = tested on: APAE006 (strain of P. aeruginosa in which all efflux pumps are inactivated); assay: microbe, parasite or virus in culture; type: cell-based; conditions: Pseudomonas aeruginosa, read-out: MIC APAE006, P. aeruginosa, all efflux pumps inactivated
Summary of the method: (§2)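 For the efflux-deficient P. aeruginosa APAE006, one set of MICs includes polymyxin B nonapeptide at 8 micrograms per milliliter.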

[3] = tested on: APAE006 in the presence of 8 micrograms per milliliter of polymyxin B nonapeptide; type: cell-based, P. aeruginosa; conditions: in the presence of 8 micrograms per milliliter of polymyxin B nonapeptide
Summary of the method: as §2

[4] = tested on: AABA1060 (clinical isolate of Acinetobacter baumannii); assay: MIC broth microdilution, AABA1060; type: cell-based; conditions: Acinetobacter baumannii, read-out: MIC AABA1060
Summary of the method: as §1

[5] = tested on: ASAU001 (laboratory strain of S. aureus, ATCC29213); assay: MIC broth microdilution, ASAU001; type: cell-based; conditions: Staphylococcus aureus, ATCC29213, read-out: MIC ASAU001
Summary of the method: as §1

AECO001 HSA AGP = assay: MIC broth microdilution, AECO001 HSA AGP; type: cell-based, E. coli; conditions: Escherichia coli
Summary of the method: as §1

Compound	MIC (AECO001 (ATCC25922)) [µg/mL]	MIC [1] [µg/mL]	MIC (APAE001 (ATCC27853)) [µg/mL]	MIC [2] [µg/mL]	MIC APAE006 + PMBN [3]	MIC [4] [µg/mL]	MIC [5] [µg/mL]	MIC (AECO001 HSA AGP) [µg/mL]
C[C@@H](O)[C@H](NC(=O)c1ccc(C#C/C=C/c2ccc(CO)cc2)cc1)C(=O)NO [Example 101-1, N-((1S,2R)-2-Hydroxy-1-hydroxycarbamoyl-propyl)-4-[(E)-4-(4-hydroxymethyl-phenyl)-but-3-en-1-ynyl]-benzamide]	< 2	< 2	2 to 16 (≈ 5.07 to 40.6 µM)	< 2	A (MIC's of 2.0 μg/mL or less = A)	16 to 64 (≈ 40.6 to 162 µM)	16 to 64 (≈ 40.6 to 162 µM)	2 to 16 (≈ 5.07 to 40.6 µM)
NC[C@H](NC(=O)c1ccc(C#C/C=C/c2ccc(CO)cc2)cc1)C(=O)NO [Example 101-2]	< 2	< 2	2 to 16 (≈ 5.27 to 42.2 µM)	< 2	A (MIC's of 2.0 μg/mL or less = A)	16 to 64 (≈ 42.2 to 169 µM)	16 to 64 (≈ 42.2 to 169 µM)	16 to 64 (≈ 42.2 to 169 µM)
C[C@@H](N)[C@H](NC(=O)c1ccc(C#C/C=C/c2ccc(CO)cc2)cc1)C(=O)NO [Example 101-3]	< 2	< 2	< 2	< 2	A (MIC's of 2.0 μg/mL or less = A)	2 to 16 (≈ 5.08 to 40.7 µM)	16 to 64 (≈ 40.7 to 163 µM)	2 to 16 (≈ 5.08 to 40.7 µM)
C[C@H](O)[C@H](NC(=O)c1ccc(C#C/C=C/c2ccc(CO)cc2)cc1)C(=O)NO [Example 101-4]	< 2	< 2	2 to 16 (≈ 5.07 to 40.6 µM)	< 2	A (MIC's of 2.0 μg/mL or less = A)	16 to 64 (≈ 40.6 to 162 µM)	16 to 64 (≈ 40.6 to 162 µM)	2 to 16 (≈ 5.07 to 40.6 µM)
CC(C)(O)[C@H](NC(=O)c1ccc(C#C/C=C/c2ccc(CO)cc2)cc1)C(=O)NO [Example 101-5]	< 2	< 2	< 2	< 2	A (MIC's of 2.0 μg/mL or less = A)	< 2	16 to 64 (≈ 39.2 to 157 µM)	2 to 16 (≈ 4.9 to 39.2 µM)
C[C@@H](O)[C@H](NC(=O)c1ccc(C#C/C=C/c2ccc(CNC3CC3)cc2)cc1)C(=O)NO [Example 102-1, 4-[(E)-4-(4-Cyclopropylaminomethyl-phenyl)-but-3-en-1-ynyl]-N-((1S,2R)-2-hydroxy-1-hydroxycarbamoyl-propyl)-benzamide]	< 2	< 2	2 to 16 (≈ 4.61 to 36.9 µM)	< 2	A (MIC's of 2.0 μg/mL or less = A)	16 to 64 (≈ 36.9 to 148 µM)	16 to 64 (≈ 36.9 to 148 µM)	2 to 16 (≈ 4.61 to 36.9 µM)
C[C@@H](N)[C@H](NC(=O)c1ccc(C#C/C=C/c2ccc(CNC3CC3)cc2)cc1)C(=O)NO [Example 102-2]	< 2	< 2	2 to 16 (≈ 4.62 to 37 µM)	< 2	A (MIC's of 2.0 μg/mL or less = A)	2 to 16 (≈ 4.62 to 37 µM)	16 to 64 (≈ 37 to 148 µM)	2 to 16 (≈ 4.62 to 37 µM)
NC[C@H](NC(=O)c1ccc(C#C/C=C/c2ccc(CNC3CC3)cc2)cc1)C(=O)NO [Example 102-3]	< 2	< 2	< 2	< 2	A (MIC's of 2.0 μg/mL or less = A)	16 to 64 (≈ 38.2 to 153 µM)	16 to 64 (≈ 38.2 to 153 µM)	2 to 16 (≈ 4.78 to 38.2 µM)
C[C@H](O)[C@H](NC(=O)c1ccc(C#C/C=C/c2ccc(CNC3CC3)cc2)cc1)C(=O)NO [Example 102-4]	< 2	< 2	2 to 16 (≈ 4.61 to 36.9 µM)	< 2	A (MIC's of 2.0 μg/mL or less = A)	16 to 64 (≈ 36.9 to 148 µM)	> 64	2 to 16 (≈ 4.61 to 36.9 µM)
CC(C)(O)[C@H](NC(=O)c1ccc(C#C/C=C/c2ccc(CNC3CC3)cc2)cc1)C(=O)NO [Example 102-5]	< 2	< 2	< 2	< 2	A (MIC's of 2.0 μg/mL or less = A)	2 to 16 (≈ 4.47 to 35.8 µM)	> 64	< 2
